Source: ChEMBL document CHEMBL5104192, “Late-Stage Functionalization with Cysteine Staples Generates Potent and Selective Melanocortin Receptor-1 Agonists” (J Med Chem, 2022)
*1 amine or outer side, *2 acyl side, *3 side chain or, on linkers, in order; H or OH if unused. Where a SMILES comes first, the peptide text is derived from it. Bridges are numbered along the chain shown (N, C = ends). [ ]: non-standard residue; d: D form. C6F4(1,4-diyl) = Fc1c(F)c([*:2])c(F)c(F)c1[*:1]; mXylylene = c1cc(C[*:1])cc(C[*:2])c1; oXylylene = c1ccc(C[*:2])c(C[*:1])c1; pXylylene = c1cc(C[*:2])ccc1C[*:1]; NMeR = CN[C@@H](CCCNC(=N)N)C(=O)O; Nle = CCCC[C@H](N)C(=O)O

What was measured:
Melanocortin receptor 3 [1] = target: T1, Melanocortin receptor 3 (Homo sapiens, UniProt P41968); test: Agonist activity at human MC3R expressed in HEK2936E cells assessed as cAMP production in presence of IBMX by time resolved fluorescence assay; type: functional, cell-based
T1 sequence (P41968 whole entry): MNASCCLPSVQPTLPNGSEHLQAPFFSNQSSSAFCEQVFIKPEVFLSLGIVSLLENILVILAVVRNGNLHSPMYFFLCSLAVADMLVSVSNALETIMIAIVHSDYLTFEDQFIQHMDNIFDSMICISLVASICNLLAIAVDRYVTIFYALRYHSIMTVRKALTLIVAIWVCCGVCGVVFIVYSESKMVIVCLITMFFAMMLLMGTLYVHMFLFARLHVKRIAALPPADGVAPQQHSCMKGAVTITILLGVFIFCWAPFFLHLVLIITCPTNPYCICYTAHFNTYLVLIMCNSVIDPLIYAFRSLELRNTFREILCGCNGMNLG

Homo sapiens [2] = species on record: Homo sapiens; test: Selectivity ratio of EC50 for human MC4R to EC50 for human MC1R
Homo sapiens [3] = species on record: Homo sapiens; test: Selectivity ratio of Ki for human MC3R to Ki for human MC1R
[4] = target: T2, Melanocyte-stimulating hormone receptor (Homo sapiens, UniProt Q01726); test: Displacement of [125I]-NDP-alpha-MSH from human MC1R expressed in HEK2936E cell membrane measured after 16 to 23 hrs by 1450 microbeta trilux scintillation proximity assay; type: cell membranes
T2 sequence (Q01726 whole entry): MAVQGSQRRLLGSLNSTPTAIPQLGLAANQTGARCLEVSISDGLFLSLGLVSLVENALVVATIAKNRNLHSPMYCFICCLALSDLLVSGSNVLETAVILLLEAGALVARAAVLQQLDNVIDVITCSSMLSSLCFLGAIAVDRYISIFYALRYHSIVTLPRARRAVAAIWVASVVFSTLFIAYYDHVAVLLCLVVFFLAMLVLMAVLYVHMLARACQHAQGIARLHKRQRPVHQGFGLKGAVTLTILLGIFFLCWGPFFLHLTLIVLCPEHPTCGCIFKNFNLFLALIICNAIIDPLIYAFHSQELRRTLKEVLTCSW

Melanocortin receptor 4 [5] = target: T3, Melanocortin receptor 4 (Homo sapiens, UniProt P32245); test: Displacement of [125I]-NDP-alpha-MSH from human MC4R expressed in HEK2936E cell membrane measured after 16 to 23 hrs by 1450 microbeta trilux scintillation proximity assay; type: cell membranes
T3 sequence (P32245 whole entry): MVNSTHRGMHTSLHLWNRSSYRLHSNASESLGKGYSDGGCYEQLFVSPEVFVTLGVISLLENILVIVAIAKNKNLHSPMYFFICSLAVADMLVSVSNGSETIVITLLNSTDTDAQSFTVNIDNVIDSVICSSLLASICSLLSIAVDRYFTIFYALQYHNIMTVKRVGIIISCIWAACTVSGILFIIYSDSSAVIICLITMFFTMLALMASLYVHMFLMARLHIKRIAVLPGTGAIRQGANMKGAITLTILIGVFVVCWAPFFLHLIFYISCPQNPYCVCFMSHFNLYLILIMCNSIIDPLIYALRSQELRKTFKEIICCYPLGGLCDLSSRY

Homo sapiens [6] = species on record: Homo sapiens; test: Selectivity ratio of Ki for human MC4R to Ki for human MC1R
Melanocortin receptor 4 [7] = target: T3, Melanocortin receptor 4; test: Agonist activity at human MC4R expressed in HEK2936E cells assessed as cAMP production in presence of IBMX by time resolved fluorescence assay; type: functional, cell-based
Homo sapiens [8] = species on record: Homo sapiens; test: Selectivity ratio of EC50 for human MC3R to EC50 for human MC1R
[9] = target: T2, Melanocyte-stimulating hormone receptor; test: Agonist activity at human MC1R expressed in HEK2936E cells assessed as cAMP production in presence of IBMX by time resolved fluorescence assay; type: functional, cell-based; conditions: read-out: pEC50 (converted)
Melanocortin receptor 3 [10] = target: T1, Melanocortin receptor 3; test: Displacement of [125I]-NDP-alpha-MSH from human MC3R expressed in HEK2936E cell membrane measured after 16 to 23 hrs by 1450 microbeta trilux scintillation proximity assay; type: cell membranes

EC50 (Melanocortin receptor 3 [1]) [nM] | Ratio EC50 (Homo sapiens [2]) | Ratio Ki (Homo sapiens [3]) | Ki [4] [nM] | Ki (Melanocortin receptor 4 [5]) [nM] | Ratio Ki (Homo sapiens [6]) | EC50 (Melanocortin receptor 4 [7]) [nM] | Ratio EC50 (Homo sapiens [8]) | EC50 [9] [nM] | Ki (Melanocortin receptor 3 [10]) [nM] | Structure (SMILES)
162 | 60 | 87 | 112 | 759 | 7 | 309 | 32 | 5.13 | 9770 | CC[C@H](C)[C@@H]1NC(=O)[C@@H]2CCCN2C(=O)[C@H](Cc2c[nH]c3ccccc23)NC(=O)[C@H](CCCNC(=N)N)N(C)C(=O)[C@H](Cc2ccccc2)NC(=O)[C@H](Cc2cnc[nH]2)NC(=O)[C@H]([C@@H](C)O)NC(=O)[C@@H](NC(C)=O)CSCc2ccc(cc2)CSC[C@@H](C(N)=O)NC1=O (Ac-CTHF[NMeR]WPIC-NH2; linker 1-9 via pXylylene)
0.229 | 35 | 6 | 3.31 | 81.3 | 25 | 8.13 | 1 | 0.339 | 20.9 | CCCC[C@@H]1NC(=O)[C@@H]2CSSC[C@H](NC(=O)[C@H](CCCNC(=N)N)NC(=O)[C@H](CC(=O)O)NC(=O)[C@H](Cc3c[nH]c4ccccc34)NC(=O)[C@H](CCCNC(=N)N)NC(=O)[C@H](Cc3ccccc3)NC(=O)[C@H](Cc3cnc[nH]3)NC(=O)CNC1=O)C(=O)N[C@@H](Cc1cnc[nH]1)C(=O)N[C@@H](Cc1ccccc1)C(=O)N[C@@H](CCCNC(=N)N)C(=O)N[C@@H](Cc1c[nH]c3ccccc13)C(=O)N[C@@H](CCCNC(=N)N)C(=O)N2 (cyclo(CHFRWRC[Nle]GHFRWDR); disulfide 1-7)

Further lines, the compound ahead of its results:

Structure (SMILES) | EC50 (Melanocortin receptor 3 [1]) [nM] | Ratio EC50 (Homo sapiens [2]) | Ratio Ki (Homo sapiens [3]) | Ki [4] [nM] | Ki (Melanocortin receptor 4 [5]) [nM] | Ratio Ki (Homo sapiens [6]) | EC50 (Melanocortin receptor 4 [7]) [nM] | Ratio EC50 (Homo sapiens [8]) | EC50 [9] [nM] | Ki (Melanocortin receptor 3 [10]) [nM]
CC[C@H](C)[C@@H]1NC(=O)[C@@H]2CCCN2C(=O)[C@H](Cc2c[nH]c3ccccc23)NC(=O)[C@H](CCCNC(=N)N)N(C)C(=O)[C@H](Cc2ccccc2)NC(=O)[C@H](Cc2cnc[nH]2)NC(=O)[C@H]([C@@H](C)O)NC(=O)[C@@H](NC(C)=O)CSCc2cccc(c2)CSC[C@@H](C(N)=O)NC1=O (Ac-CTHF[NMeR]WPIC-NH2; linker 1-9 via mXylylene) | 195 | 103 | 83 | 110 | 1290 | 12 | 302 | 66 | 2.95 | 9120
CC[C@H](C)[C@@H]1NC(=O)[C@@H]2CCCN2C(=O)[C@H](Cc2c[nH]c3ccccc23)NC(=O)[C@H](CCCNC(=N)N)N(C)C(=O)[C@H](Cc2ccccc2)NC(=O)[C@H](Cc2cnc[nH]2)NC(=O)[C@H]([C@@H](C)O)NC(=O)[C@@H](NC(C)=O)CSCc2ccccc2CSC[C@@H](C(N)=O)NC1=O (Ac-CTHF[NMeR]WPIC-NH2; linker 1-9 via oXylylene) | 295 | 212 | 191 | 64.6 | 2140 | 33 | 398 | 58 | 1.86 | 12300
CCCC[C@@H]1NC(=O)[C@@H]2CSc3c(F)c(F)c(c(F)c3F)SC[C@H](NC(=O)[C@H](CCCNC(=N)N)NC(=O)[C@H](CC(=O)O)NC(=O)[C@H](Cc3c[nH]c4ccccc34)NC(=O)[C@H](CCCNC(=N)N)NC(=O)[C@H](Cc3ccccc3)NC(=O)[C@H](Cc3cnc[nH]3)NC(=O)CNC1=O)C(=O)N[C@@H](Cc1cnc[nH]1)C(=O)N[C@@H](Cc1ccccc1)C(=O)N[C@@H](CCCNC(=N)N)C(=O)N[C@@H](Cc1c[nH]c3ccccc13)C(=O)N[C@@H](CCCNC(=N)N)C(=O)N2 (cyclo(CHFRWRC[Nle]GHFRWDR); linker 1-7 via C6F4(1,4-diyl)) | 0.275 | 29 | 15 | 0.794 | 45.7 | 58 | 3.55 | 2 | 0.123 | 11.7
